Experimental data published in patent publication US6479054B1, “Process for obtaining genistin-rich isoflavone composition” (Showa Sangyo Co., Ltd., priority 1998, dated 2002).

Assay: Solubility of genistin in isoflavone containing eluate as a function of pH (FIG. 1)
Format: physicochemical
Text: Concentrations of isoflavones in a supernatant are shown, making each isoflavone concentration at the time of elution 100.).

- solubility of genistin in an isoflavone containing eluate (pHs of not less than 10): extremely high
- solubility of genistin in an isoflavone containing eluate (pHs of not more than 9.5): extremely low
SMILES: O=c1c(-c2ccc(O)cc2)coc2cc(O[C@@H]3O[C@H](CO)[C@@H](O)[C@H](O)[C@H]3O)cc(O)c12 [genistin]
